The target in assay [1] is T1, human FGFR3 wild type enzyme (cytoplasmic domain) (Homo sapiens, UniProt P22607).
T1 construct: human FGFR3 wild type enzyme (cytoplasmic domain, from Carna Biosciences); purchased Carna Biosciences
In words: FGFR3 wild type mobility shift assay (enzymatic assay). It is filed as biochemical. The conditions noted are these: 75 μM ATP, 50 minutes at 30° C., Caliper EZ reader II. Here is the method:
FGFR3 Wild Type Mobility Shift Assay (Enzymatic Assay)
(§1) In a final reaction volume of 25 μL, 0.04 ng/μL human FGFR3 wild type enzyme (cytoplasmic domain, from Carna Biosciences) was incubated with 75 μM ATP, 1 μM FL-peptide 30 substrate and 250 nL of testing compound (1% DMSO final) in assay buffer (100 mM HEPES pH 7.4, 10 mM MgCl2, 0.003% Brij35, 1 mM DTT). After incubation for 50 minutes at 30° C. the reaction was stopped with 10 μL of 0.5M EDTA pH 8.0, and then 25 μL of reaction mixture was transferred to reading plate and measured on Caliper EZ reader II. The substrate-product conversion rate was used as raw data for normalization and concentration-response curve (10 dose points with 4× serial dilution, starting with 10 μM) was plotted using Prism to calculate IC50 (M), pIC50 (−log IC50) and HillSlope value.

Assay [2] concerns the target T2, human FGFR3 V555M enzyme (cytoplasmic domain carrying V555M mutation) (Homo sapiens, UniProt P22607, V555M).
T2 construct: human FGFR3 V555M enzyme (cytoplasmic domain carrying V555M mutation, from Carna Biosciences); purchased Carna Biosciences
In words: FGFR3 V555M mobility shift assay (enzymatic assay). It counts as biochemical. The settings on record: 30 μM ATP, 45 minutes at 30° C., Caliper EZ reader II. The procedure: FGFR3 V555M Mobility Shift Assay (Enzymatic Assay)
as §1, with “FGFR3 V555M” for “FGFR3 wild type”, “(cytoplasmic domain carrying V555M mutation,” for “(cytoplasmic domain,”, “with 30” for “with 75”, “for 45” for “for 50”

Assay [3] concerns the target T3, NIH/3T3 cells overexpressing FGFR3 WT-TACC3 fusion protein (Homo sapiens, UniProt P22607).
T3 construct: NIH/3T3 FGFR3 WT-TACC3 CTG (IC50); other: 72-hr incubation, CellTiter Glo, starting with 10 μM; fused on or other part: Q9Y6A5 (Transforming acidic coiled-coil-containing protein 3)
Put plainly: NIH/3T3 FGFR3 WT-TACC3 cell proliferation assay. It is filed as cell-based. The settings on record: 72-hr incubation, CellTiter Glo, starting with 10 μM; read-out: NIH/3T3 FGFR3 WT-TACC3 CTG (IC50). Here is the method:
NIH/3T3 FGFR3 WT-TACC3 Cell Proliferation Assay
(§2) In day 1, 90 μL of cell suspension (NIH/3T3 cells overexpressing FGFR3 WT-TACC3 fusion protein) (total 30,000 cells per well in growth medium (DMEM containing 1% Glutamax, 10% FBS and 1% Pen/Strep)) was seeded in a 96-well plate and then incubated overnight at 37° C. and 5% CO2. In day 2, 10 μL of growth medium containing 10-fold stock solution of testing compound was added into cell cultures (9 dose points with 4× serial dilution, starting with 10 μM, 0.1% DMSO final). After 72-hr incubation at 37° C. and 5% CO2, in day 5 a volume of 50 μL CellTiter Glo (CTG) reagent was added into cell-containing 96-well plate and the plate was incubated at room temperature for 10 minutes before RLUs (relative light unit) were measured on a microplate reader with luminescence detection module. The RLU value was normalized to survival % and concentration-response curve was plotted using Prism to calculate IC50 (M), pIC50 (−log IC50) and HillSlope value.
(Cellular ATP, detected with luciferase, serves as a proxy for viable cell number.)

In assay [4] the test system is NIH/3T3 cells transfected with the same control vector. Put plainly: NIH/3T3 mock cell proliferation assay (counter assay, general toxicity). It is filed as cell-based. The conditions noted are these: Mus musculus, NIH3T3, 72 h, 72-hr incubation, CellTiter Glo, starting with 30 μM; counter assay for general toxicity; read-out: NIH/3T3 MOCK CTG (IC50). The procedure: NIH/3T3 Mock Cell Proliferation Assay
as §2, with “cells transfected with the same control vector as in the above two proliferation assays)” for “cells overexpressing FGFR3 WT-TACC3 fusion protein)”, “with 3×” for “with 4×”, “with 30” for “with 10”, “μM, 0.3%” for “μM, 0.1%”

Assay [5] has as its target T4, NIH/3T3 cells overexpressing FGFR3 V555M-TACC3 fusion protein (Homo sapiens, UniProt P22607, V555M, cells depend on it).
T4 construct: NIH/3T3 FGFR3 V555M-TACC3 CTG (IC50); other: 72-hr incubation, CellTiter Glo, starting with 10 μM; fused on or other part: Q9Y6A5 (Transforming acidic coiled-coil-containing protein 3)
In words: NIH/3T3 FGFR3 V555M-TACC3 cell proliferation assay. It counts as cell-based. The settings on record: 72-hr incubation, CellTiter Glo, starting with 10 μM; read-out: NIH/3T3 FGFR3 V555M-TACC3 CTG (IC50). The procedure: NIH/3T3 FGFR3 V555M-TACC3 Cell Proliferation Assay
as §2, with “V555M-TACC3” for “WT-TACC3”

T1 sequence (P22607 397-806 limits assumed): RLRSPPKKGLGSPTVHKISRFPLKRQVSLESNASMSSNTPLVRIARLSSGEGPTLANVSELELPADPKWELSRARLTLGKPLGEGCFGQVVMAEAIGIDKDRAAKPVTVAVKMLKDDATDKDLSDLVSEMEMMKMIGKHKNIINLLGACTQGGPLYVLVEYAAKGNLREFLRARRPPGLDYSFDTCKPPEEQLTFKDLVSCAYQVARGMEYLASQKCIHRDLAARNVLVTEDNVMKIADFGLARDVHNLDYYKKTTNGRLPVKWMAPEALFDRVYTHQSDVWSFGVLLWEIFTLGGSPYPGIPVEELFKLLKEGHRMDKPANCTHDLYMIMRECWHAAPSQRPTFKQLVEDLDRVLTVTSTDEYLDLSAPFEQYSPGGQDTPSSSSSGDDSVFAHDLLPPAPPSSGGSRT
T4 sequence (P22607 whole entry V555M, the tested form may be a part): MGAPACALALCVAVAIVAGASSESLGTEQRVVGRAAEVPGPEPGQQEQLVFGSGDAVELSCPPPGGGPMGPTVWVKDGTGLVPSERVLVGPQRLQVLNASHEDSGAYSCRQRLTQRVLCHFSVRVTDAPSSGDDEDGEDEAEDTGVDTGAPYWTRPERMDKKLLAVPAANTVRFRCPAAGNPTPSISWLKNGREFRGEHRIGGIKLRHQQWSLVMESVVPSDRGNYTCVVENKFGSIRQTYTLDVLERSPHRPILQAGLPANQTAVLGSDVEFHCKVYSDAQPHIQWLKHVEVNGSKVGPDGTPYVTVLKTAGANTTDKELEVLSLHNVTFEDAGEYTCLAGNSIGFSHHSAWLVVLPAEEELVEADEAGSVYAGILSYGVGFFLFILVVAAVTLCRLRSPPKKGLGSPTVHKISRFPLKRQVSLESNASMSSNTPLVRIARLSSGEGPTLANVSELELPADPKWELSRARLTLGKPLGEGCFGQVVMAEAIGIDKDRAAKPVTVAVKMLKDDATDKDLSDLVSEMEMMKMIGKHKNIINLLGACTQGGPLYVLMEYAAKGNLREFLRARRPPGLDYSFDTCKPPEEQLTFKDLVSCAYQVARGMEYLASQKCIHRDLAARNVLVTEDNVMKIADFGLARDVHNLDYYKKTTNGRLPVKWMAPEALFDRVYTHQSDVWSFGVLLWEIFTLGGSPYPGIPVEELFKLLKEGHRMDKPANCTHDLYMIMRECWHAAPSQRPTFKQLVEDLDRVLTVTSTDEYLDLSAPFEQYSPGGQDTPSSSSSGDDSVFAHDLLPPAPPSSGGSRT
T3 sequence (P22607 whole entry, change not shown, the tested form may be a part): as the sequence (P22607 whole entry V555M, the tested form may be a part) above, with M555V counted along it
T2 sequence (P22607 397-806 V555M limits assumed): as the sequence (P22607 397-806 limits assumed) above, with V159M counted along it

As for `CC(Nc1c(-c2nc3ccc(N4CCOCC4)c(F)c3[nH]2)c(=O)[nH]c2ccccc12)c1ncccn1` (single isomer, unassigned) [Compound 23a, (S*)-3-(7-fluoro-6-morpholino-1H-benzo[d]imidazol-2-yl)-4-((1-(pyrimidin-2-yl)-ethyl)amino)quinolin-2(1H)-one], the values for the IC50 in assay [1], in assay [2] and in assay [4] were 0.591 nM, 0.245 nM and 15300 nM, respectively. In addition, the GI50 in assay [3] worked out at 8.34 nM; in assay [5] it was 13.4 nM.

Take `CC(Nc1c(-c2nc3cc(C(F)(F)F)c(N4CCN(C)CC4)cc3[nH]2)c(=O)[nH]c2ccccc12)c1ncccn1` (single isomer, unassigned) [Compound 25a, (S*)-3-(6-(4-methylpiperazin-1-yl)-5-(trifluoromethyl)-1H-benzo[d]imidazol-2-yl)-4-((1-(pyrimidin-2-yl)ethyl)amino)quinolin-2(1H)-one]: the results for the IC50 in assay [1], in assay [2] and in assay [4] were 1.22 nM, 1.03 nM and 2260 nM, respectively. In addition, the figures for the GI50 in assay [3] and in assay [5] were 5.16 nM and 4.82 nM, respectively.

Take `CC(Nc1c(-c2nc3ccc(N4CCO[C@@H](C)C4)cc3[nH]2)c(=O)[nH]c2ccccc12)c1ncccn1` (single isomer, unassigned) [Compound 26a, 3-(6-((S)-2-methylmorpholino)-1H-benzo[d]imidazol-2-yl)-4-(((S*)-1-(pyrimidin-2-yl)-ethyl)amino)quinolin-2(1H)-one]: the IC50 in assay [1] came out at 0.317 nM; in assay [2], 0.178 nM; in assay [4], 2580 nM. The GI50 in assay [3] turned out to be 2.22 nM; in assay [5], 4.3 nM.

On to `CC(Nc1c(-c2nc3cc(F)c(N4CCOCC4)cc3[nH]2)c(=O)[nH]c2ccccc12)c1ncccn1` (single isomer, unassigned) [Compound 27a, (S*)-3-(5-fluoro-6-morpholino-1H-benzo[d]imidazol-2-yl)-4-((1-(pyrimidin-2-yl)-ethyl)amino)quinolin-2(1H)-one], for which the IC50 in assay [1] amounted to 0.445 nM; in assay [2], 0.255 nM; in assay [4] it was 3880 nM. The GI50 is 6.93 nM in assay [3] and 5.8 nM in assay [5].

For the compound `C[C@H](Nc1c(-c2nc3ccc(N4CCCCC4)cc3[nH]2)c(=O)[nH]c2ccccc12)c1ncccn1` (single isomer, unassigned) [Compound 28a, (S*)-3-(6-(piperidin-1l-yl)-1H-benzo[d]imidazol-2-yl)-4-((1-(pyrimidin-2-yl)ethyl)-amino)quinolin-2(1H)-one], the IC50 in assay [1] was 0.552 nM; in assay [2], 0.302 nM; in assay [4] it was 7220 nM. In addition, the figures for the GI50 in assay [3] and in assay [5] were 5.49 nM and 8.35 nM, respectively.

Take `CC(Nc1c(-c2nc3ccc(C4CCOCC4)cc3[nH]2)c(=O)[nH]c2ccccc12)c1ncccn1` (single isomer, unassigned) [Compound 29a, (S*)-4-((1-(pyrimidin-2-yl)ethyl)amino)-3-(6-(tetrahydro-2H-pyran-4-yl)-1H-benzo[d]-imidazol-2-yl)quinolin-2(1H)-one]: the IC50 in assay [1] worked out at 0.242 nM; in assay [2] it was 0.15 nM; in assay [4], 4690 nM. Further, the results for the GI50 in assay [3] and in assay [5] were 8.46 nM and 10.8 nM, respectively.

Consider `CCCC(Nc1c(-c2nc3ccc(N4CCOCC4)cc3[nH]2)c(=O)[nH]c2ccccc12)c1ncccn1` (single isomer, unassigned) [Compound 31a, (S*)-3-(6-morpholino-1H-benzo[d]imidazol-2-yl)-4-((1-(pyrimidin-2-yl)butyl)amino)quinolin-2(1H)-one], for which the IC50 in assay [1] came out at 0.843 nM; in assay [2] it was 0.181 nM; in assay [4], 2920 nM. Further, the GI50 was found to be 25.7 nM in assay [3] and 14.3 nM in assay [5].

Regarding `Cc1ccnc(C(C)Nc2c(-c3nc4ccc(N5CCOCC5)cc4[nH]3)c(=O)[nH]c3ccccc23)n1` (single isomer, unassigned) [Compound 34a, (S*)-4-((1-(4-methylpyrimidin-2-yl)ethyl)amino)-3-(6-morpholino-1H-benzo[d]imidazol-2-yl)quinolin-2(1H)-one], the results for the IC50 in assay [1], in assay [2] and in assay [4] were 9 nM, 1.59 nM and 1320 nM, respectively. Moreover, the GI50 in assay [3] was 43.1 nM; in assay [5], 70.4 nM.

Take `CC(Nc1c(-c2nc3ccc(N4CCOCC4)cc3[nH]2)c(=O)[nH]c2ccccc12)c1cnccn1` (single isomer, unassigned) [Compound 35b, (S*)-3-(6-morpholino-1H-benzo[d]imidazol-2-yl)-4-((1-(pyrazin-2-yl)ethyl)amino)-quinolin-2(1H)-one]: the IC50 came to 11.1 nM in assay [1], 2.86 nM in assay [2] and 1680 nM in assay [4]. The GI50 was 127 nM in assay [3] and 197 nM in assay [5].

For the compound `CC(Nc1c(-c2nc3ccc(N4CCOCC4)cc3[nH]2)c(=O)[nH]c2ccccc12)c1ccn(C(C)C)n1` (single isomer, unassigned) [Compound 36b, (S*)-4-((1-(1-isopropyl-1H-pyrazol-3-yl)ethyl)amino)-3-(6-morpholino-1H-benzo[d]-imidazol-2-yl)quinolin-2(1H)-one], the results for the IC50 in assay [1], in assay [2] and in assay [4] were 7.32 nM, 2.35 nM and 1520 nM, respectively. Further, the GI50 in assay [3] is 315 nM; in assay [5], 170 nM.

For the origin of these results see patent US11384075B2, “Quinolinone compounds” (Janssen Pharmaceutica NV, priority 2017, dated 2022).
